For 13 molecules, EC50 results are on record in US20240309003A1, “HETEROCYCLIC COMPOUNDS AS TRIGGERING RECEPTOR EXPRESSED ON MYELOID CELLS 2 AGONISTS AND METHODS OF USE” (Vigil Neuroscience, Inc., priority 2021, published 2024).

Usually EC50 stands for the midpoint of the concentration-response curve.

A value given as a limit tells only on which side of the number the result lay.

T1 sequence (Q9NZC2 19-230): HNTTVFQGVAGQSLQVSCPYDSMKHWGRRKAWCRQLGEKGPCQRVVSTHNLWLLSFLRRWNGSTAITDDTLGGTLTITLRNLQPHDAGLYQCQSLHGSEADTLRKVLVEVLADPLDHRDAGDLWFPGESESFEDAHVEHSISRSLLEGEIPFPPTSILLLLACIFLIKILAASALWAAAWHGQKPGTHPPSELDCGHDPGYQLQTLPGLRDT
T1 sequence (O43914 22-113 partner): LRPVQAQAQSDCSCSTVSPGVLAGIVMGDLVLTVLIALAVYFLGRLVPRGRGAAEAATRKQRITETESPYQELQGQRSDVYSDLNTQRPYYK

The assay has as its target T1, human TREM2 (Homo sapiens, UniProt Q9NZC2).
T1 construct: expressed in transfected cells; host or cells: HEK293T
The experiment in a line: TREM2 agonist potency by cellular phosphorylation of Syk (AlphaLisa) in HEK293T-hTREM2 cells. In kind it is cell-based. Particulars: HEK293 cells expressing human TREM2 and DAP12, Table D. The gist of the method: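 Agonist EC50 from a variable-slope four-parameter fit of % activation, based on AlphaLisa phospho-Syk levels in lysates. Cells: HEK293T-hTREM2 (with DAP12), treated 45 min at room temperature with compound in assay buffer.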
For the molecule `Cc1nc2nc([C@H]3C[C@@H](C)O[C@@H](c4cnn(C5CC5)c4)C3)nc(-c3ccc(C(F)(F)F)cc3)c2nc1C` [Example 159, 2-((2R,4S,6R)-2-(1-cyclopropyl-1H-pyrazol-4-yl)-6-methyltetrahydro-2H-pyran-4-yl)-6,7-dimethyl-4-(4-(trifluoromethyl)phenyl) pteridine], the EC50 was less than 50 nM.

As for `COc1ncccc1[C@@H]1C[C@H](c2nc(-c3ccc(F)cc3F)c3nc(C)c(C)nc3n2)CCO1` [Example 160, 4-(2,4-difluorophenyl)-2-((2S,4R)-2-(2-methoxypyridin-3-yl)tetrahydro-2H-pyran-4-yl)-6,7-dimethylpteridine], the EC50 lay within 50 to 500 nM.

Take `COc1ncccc1[C@H]1C[C@@H](c2nc(-c3ccc(F)cc3F)c3nc(C)c(C)nc3n2)CCO1` [Example 161, 4-(2,4-difluorophenyl)-2-((2R,4S)-2-(2-methoxypyridin-3-yl)tetrahydro-2H-pyran-4-yl)-6,7-dimethylpteridine]: the EC50 was in the range of 50 to 500 nM. Then `COc1ccc([C@@H]2C[C@H](c3nc(-c4ccc(F)cc4F)c4nc(C)c(C)nc4n3)CCO2)cn1` [Example 162, 4-(2,4-difluorophenyl)-2-((2S,4R)-2-(6-methoxypyridin-3-yl)tetrahydro-2H-pyran-4-yl)-6,7-dimethylpteridine], with 50 to 500 nM; and `COc1ccc([C@H]2C[C@@H](c3nc(-c4ccc(F)cc4F)c4nc(C)c(C)nc4n3)CCO2)cn1` [Example 163, 4-(2,4-difluorophenyl)-2-((2R,4S)-2-(6-methoxypyridin-3-yl)tetrahydro-2H-pyran-4-yl)-6,7-dimethylpteridine], with 50 to 500 nM; and `COc1cccc([C@@H]2C[C@H](c3nc(-c4ccc(F)cc4F)c4nc(C)c(C)nc4n3)CCO2)n1` [Example 164, 4-(2,4-difluorophenyl)-2-((2S,4R)-2-(6-methoxypyridin-2-yl)tetrahydro-2H-pyran-4-yl)-6,7-dimethylpteridine], with 500 to 3000 nM. In turn, `COc1cccc([C@H]2C[C@@H](c3nc(-c4ccc(F)cc4F)c4nc(C)c(C)nc4n3)CCO2)n1` [Example 165, 4-(2,4-difluorophenyl)-2-((2R,4S)-2-(6-methoxypyridin-2-yl)tetrahydro-2H-pyran-4-yl)-6,7-dimethylpteridine] displayed an EC50 of 50 to 500 nM.

The molecule `Cc1nc2nc(C3CCOC(c4cc(C5CC5)n[nH]4)C3)nc(-c3ccc(F)cc3F)c2nc1C` (stereo not shown) [Example 166, 2-(2-(3-cyclopropyl-1H-pyrazol-5-yl)tetrahydro-2H-pyran-4-yl)-4-(2,4-difluorophenyl)-6,7-dimethylpteridine] displayed an EC50 of 50 to 500 nM. The value for `Cc1nc2nc(C3CCOC(c4cn[nH]c4)C3)nc(-c3ccc(F)cc3F)c2nc1C` (stereo not shown) [Example 167, 2-(2-(1H-pyrazol-4-yl)tetrahydro-2H-pyran-4-yl)-4-(2,4-difluorophenyl)-6,7-dimethylpteridine] was 50 to 500 nM; that for `Cc1nc2nc(C3C[C@@H](C)O[C@@H](c4cn[nH]c4)C3)nc(-c3ccc(F)cc3F)c2nc1C` (stereo partly shown) [Example 168] was 50 to 500 nM. Molecule `Cc1nc2nc(C3CCOC(c4nc(C5CC5)n[nH]4)C3)nc(-c3ccc(F)cc3F)c2nc1C` (stereo not shown) [Example 169] gave a concentration for a half-maximal effect (EC50) of 500 to 3000 nM.

With `[2H]C1([2H])C[C@H](c2nc(-c3ccc(F)cc3F)c3nc(C)c(C)nc3n2)C[C@H](c2cnn(C3CC3)c2)O1` [Example 171, 2-((2R,4S)-2-(1-cyclopropyl-1H-pyrazol-4-yl)tetrahydro-2H-pyran-4-yl-6,6-d2)-4-(2,4-difluorophenyl)-6,7-dimethylpteridine], the concentration for a half-maximal effect (EC50) fell in the range of 50 to 500 nM. Then `[2H]C([2H])([2H])c1nc2nc([C@@H]3CCO[C@H](c4cnn(C([2H])([2H])[2H])c4)C3)nc(-c3ccc(C)cc3)c2nc1C([2H])([2H])[2H]` [Example 172, 6,7-bis(methyl-d3)-2-((2S,4R)-2-(1-(methyl-d3)-1H-pyrazol-4-yl)tetrahydro-2H-pyran-4-yl)-4-(p-tolyl)pteridine], with 3000 to 100000 nM.
